Measurements as given in patent publication US20180250313A1, “COMPOUNDS AND FORMULATIONS FOR TREATING OPHTHALMIC DISEASES” (VIEWPOINT THERAPEUTICS, INC., priority 2015, published 2018).

How the values were obtained:
[1] = Ex vivo human tissue pharmacokinetic experiment: entire human globes soaked six days, C29 exposure in areas of the eye; type: in vitro ADME; conditions: for Calculated Concentration: globe soaked in 1 mM API in 8% cyclodextrin in PBS, six days, room temperature; for Dilution Corrected Concentration: six days soak, 1 mM API in 8% cyclodextrin in PBS
Experimental: Pharmacokinetic experiments were performed on entire human globes (eye without appendages) to determine exposure of the compound (C29) in various areas of the eye. Each globe was obtained less than 24 hours after collection and then soaked in either a solution of 1 mM API in 8% cyclodextrin in PBS or only PBS for six days at room temperature.

[2] = Kinetics of compound accumulation in the lens of entire human globes soaked one to four days; type: in vitro ADME; conditions: human globes in 1 mM API in 8% cyclodextrin in PBS, room temperature
Experimental: In a similar experiment, entire human globes were used to determine the kinetics of compound accumulation in the lens. A total of eight globes were soaked in a solution of 1 mM API in 8% cyclodextrin in PBS for one, two, three, or four days at room temperature.

[3] = Ocular distribution of Compound IIIC after intravitreal administration (LC-MS/MS of ocular tissues); type: in vivo, New Zealand White rabbits; conditions: for Levels in the lens: intravitreal
Text: New Zealand White rabbits obtained from the Western Oregon Rabbit Company were used for this study. 12 animals were used in this study, and all animals used were male. Prior to treatment initiation, selection of animals for the study was based on a visual appraisal of good clinical condition and body weight specifications. Animals selected for use in this study were as uniform in age and weight as possible. Animal's weights ranged from about 2.58 to about 3.22 kilograms at the start of the experiment. All animals were healthy at the time of animal selection. All animals were identified by ear tag and by cage cards listing the animal identification number, study number, group, and sex of the animal.
The compound of formula IIIC was tested at two different concentrations, 3% weight/volume and 0.5% weight/volume. For both concentrations the compound was formulated as an aqueous suspension. Details of the formulations are as follows: Formulation 1: 3% of ˜500 nm nanoparticles of a compound of formula IIIC in 0.6% tromethamine as buffer, 0.1% polysorbate-80 to aide in dispersion of the API, pH adjusted with boric acid to 7.4, and osmolarity adjusted with mannitol to 293 mOsm. Formulation 2: 0.5% of ˜500 nm nanoparticles of a compound of formula IIIC in 0.6% tromethamine as buffer, 0.1% polysorbate-80 to aide in dispersion of the API, pH adjusted with boric acid to 7.4, and osmolarity adjusted with mannitol to 293 mOsm.
Animals were assigned to one of two experimental groups based on body weight, such that each group contained 6 animals. Animals in group 1 were administered 25 μL for formulation 1 by intravitreous injection, while animals in group 2 were administered 25 μL of formulation 2. Within each group animals were further divided into 3 time points, 2 hours, 1 day and 7 days. Each time point consisted of two animals. Administration of formulations 1 and 2 occurred at time 0.
For intravitreal injections animals were anesthetized with an intramuscular injection of ketamine hydrochloride (12 to 20 mg/kg) and xylazine (5 mg/kg). One to two drops of topical proparacaine hydrochloride anesthetic (0.5%) were applied to the animal's eyes prior to the surgical procedure. The eyes were cleaned with Betadine and then rinsed with balanced salt solution (BSS). Test article was drawn up directly into a 0.3 mL insulin syringe with a 31G 5/16 inch needle, and injections were made 4 to 5 mm away from the limbus. Once the needle was inserted, 25 μL of the test article was injected. The needle was removed and the eye rinsed with BSS. […] Animals were monitored during recovery.
Animals were euthanized at the designated time points by an intravenous injection of pentobarbital (150 mg/kg). […] The concentration of compound IIIC in each collected sample was measured by LC-MS/MS. […]

Calculated Concentration ([1]; Human Cornea): 2120 nM
Dilution Corrected Concentration ([1]; Human Cornea): 4.24 µM
Calculated Concentration ([1]; Human Iris): 1330 nM
Dilution Corrected Concentration ([1]; Human Iris): 2.66 µM
Calculated Concentration ([1]; Human Lens): 7620 nM
Dilution Corrected Concentration ([1]; Human Lens): 15.24 µM
Calculated Concentration ([1]; Human Retina): 4310 nM
Dilution Corrected Concentration ([1]; Human Retina): 8.62 µM
Calculated Concentration ([1]; Human Vitreous Humor): 2410 nM
Dilution Corrected Concentration ([1]; Human Vitreous Humor): 4.82 µM
Average Concentration in Lens ([2]; 1 day of incubation): 14.5 µM
Average Concentration in Lens ([2]; 2 days of incubation): 20.7 µM
Average Concentration in Lens ([2]; 3 days of incubation): 39.8 µM
Average Concentration in Lens ([2]; 4 days of incubation): 37.8 µM
levels in the vitreous humor, course over time ([3]; intravitreal 25 μL, 3% and 0.5% formulation, 2 hr, 24 hr, 168 hr): decreased steadily at later time points
levels in the vitreous humor, dependence on dose ([3]; intravitreal 25 μL, 3% versus 0.5% formulation, 2 hr, 24 hr, 168 hr): dose-dependent
Levels in the lens ([3]; earlier time points): undetectable
Compound: C[C@H](CCCC(C)(C)O)[C@H]1CC[C@H]2[C@@H]3CC=C4C[C@@H](O)CC[C@]4(C)[C@H]3CC[C@]12C [Compound C29, 25-hydroxycholesterol]
Levels in the lens ([3]; higher-dosed group, last time point (7 days after dosing)): consistently exhibiting detectable levels
